The numbers were not newly measured in paper PMC10002517, “Inhibition of Transglutaminase 2 as a Therapeutic Strategy in Celiac Disease—In Vitro Studies in Intestinal Cells and Duodenal Biopsies” (International Journal of Molecular Sciences, 2023), which cites them from elsewhere.

SMILES strings stand for the structures.

For one data set, the system named is actin rearrangement. The note with it: cited from earlier work. The text has this: (§1) Even though our results underline the significance of TG2 inhibition, further research is needed to investigate the effects of those inhibitors on gliadin-induced inflammation. In recent studies, these inflammatory mechanisms were only partially mitigated by inhibition of TG2.

Data set [1] relates to epithelial infiltration of CD8+ T cells and mucosal damage. The note with it: cited from earlier work.
Source text: as §1

For `CC(=O)CSc1n(C)cc[n+]1C.[Cl-]` [R283], the “effect on actin rearrangement after treatment with P31-43” value with actin rearrangement is “did not prevent actin rearrangement”. Besides, the “effect on epithelial infiltration of CD8+ T cells and mucosal damage” value in data set [1] is given as “did not mitigate”.
